This is an account of results in ChEMBL document CHEMBL2401689, “Design, synthesis and antibacterial activity studies of thiazole derivatives as potent ecKAS III inhibitors” (Bioorg Med Chem Lett, 2013).

SMILES strings stand for the structures. ≈ marks a conversion by molar mass, not a printed value.

In one data set the test system is Staphylococcus aureus. Put plainly: Antibacterial activity against Staphylococcus aureus ATCC 6538 after 24 hrs by MTT assay. The class given is functional. The note with it: ATCC 6538, 24 h. On the technique in general: Tetrazolium dyes change colour on reduction, which living cells bring about.
`CC1(C)S[C@@H]2[C@H](NC(=O)Cc3ccccc3)C(=O)N2[C@H]1C(=O)O` [PENICILLIN G] registered an MIC of 6.25 µg/mL (≈ 18.7 µM).
The same measure, in the same setting: the same measure for `COc1cccc(CC(=O)Nc2nc(-c3ccccc3)cs2)c1`: 50 µg/mL (≈ 154 µM); for `NC[C@H]1O[C@H](O[C@H]2[C@H](O)[C@@H](O[C@H]3O[C@H](CO)[C@@H](O)[C@H](N)[C@H]3O)[C@H](N)C[C@@H]2N)[C@H](N)[C@@H](O)[C@@H]1O` [BEKANAMYCIN]: 3.13 µg/mL (≈ 6.47 µM).
The same measure, in the same setting: the same measure for `O=C(Cc1cccc(Cl)c1)Nc1nc(-c2ccccc2)cs1`: 6.25 µg/mL (≈ 19 µM).
The same measure, in the same setting: the same measure for `O=C(Nc1nc(-c2ccc(Br)cc2)cs1)c1ccccc1`: above 100 µg/mL.
In turn, `O=C(Nc1nc(-c2ccccc2)cs1)c1ccccc1` came in with an MIC above 100 µg/mL.
The same measure, in the same setting: the same measure for `CCOc1ccc(CC(=O)Nc2nc(-c3ccccc3)cs2)cc1OCC`: above 100 µg/mL; for `O=C(Nc1nc(-c2ccccc2)cs1)c1cccc2ccccc12`: above 100 µg/mL; for `O=C(Cc1cccc(Br)c1)Nc1nc(-c2ccc(Br)cc2)cs1`: 6.25 µg/mL (≈ 13.8 µM).
`COc1cccc(CC(=O)Nc2nc(-c3ccc(Br)cc3)cs2)c1`: the MIC is 50 µg/mL (≈ 124 µM). Against the preceding compound, the MIC is about 8-fold higher.
Turning to `O=C(Nc1nc(-c2ccccc2)cs1)c1ccc2ccccc2c1`, the MIC is above 100 µg/mL.
The same measure, in the same setting: the same measure for `O=C(Cc1ccc(Br)cc1)Nc1nc(-c2ccccc2)cs1`: 50 µg/mL (≈ 134 µM); for `O=C(Cc1ccccc1)Nc1nc(-c2ccc(Br)cc2)cs1`: 25 µg/mL (≈ 67 µM).

A further data set concerns Pseudomonas aeruginosa. The experiment in a line: Antibacterial activity against Pseudomonas aeruginosa ATCC 13525 after 24 hrs by MTT assay. The class given is functional. Particulars: ATCC 13525, 24 h.
With `CC1(C)S[C@@H]2[C@H](NC(=O)Cc3ccccc3)C(=O)N2[C@H]1C(=O)O` [PENICILLIN G], 6.25 µg/mL (≈ 18.7 µM) was the least that counted as inhibitory (MIC).
For `COc1cccc(CC(=O)Nc2nc(-c3ccccc3)cs2)c1`, 50 µg/mL (≈ 154 µM) was the least that counted as inhibitory (MIC). Against the preceding compound, the MIC is about 8-fold higher.
Compound `NC[C@H]1O[C@H](O[C@H]2[C@H](O)[C@@H](O[C@H]3O[C@H](CO)[C@@H](O)[C@H](N)[C@H]3O)[C@H](N)C[C@@H]2N)[C@H](N)[C@@H](O)[C@@H]1O` [BEKANAMYCIN] yielded an MIC of 3.13 µg/mL (≈ 6.47 µM).
Still for that read-out and setting: the same measure for `O=C(Cc1cccc(Cl)c1)Nc1nc(-c2ccccc2)cs1`: 6.25 µg/mL (≈ 19 µM); for `O=C(Nc1nc(-c2ccc(Br)cc2)cs1)c1ccccc1`: above 100 µg/mL; for `O=C(Nc1nc(-c2ccccc2)cs1)c1ccccc1`: above 100 µg/mL.
Same read-out and setting: the same measure for `CCOc1ccc(CC(=O)Nc2nc(-c3ccccc3)cs2)cc1OCC`: 50 µg/mL (≈ 131 µM).
Still for that read-out and setting: the same measure for `O=C(Nc1nc(-c2ccccc2)cs1)c1cccc2ccccc12`: above 100 µg/mL.
`O=C(Cc1cccc(Br)c1)Nc1nc(-c2ccc(Br)cc2)cs1` yielded an MIC of 12.5 µg/mL (≈ 27.6 µM).
Same read-out and setting: the same measure for `COc1cccc(CC(=O)Nc2nc(-c3ccc(Br)cc3)cs2)c1`: 50 µg/mL (≈ 124 µM); for `O=C(Nc1nc(-c2ccccc2)cs1)c1ccc2ccccc2c1`: above 100 µg/mL; for `O=C(Cc1ccc(Br)cc1)Nc1nc(-c2ccccc2)cs1`: 50 µg/mL (≈ 134 µM).
Compound `O=C(Cc1ccccc1)Nc1nc(-c2ccc(Br)cc2)cs1` registered an MIC of 50 µg/mL (≈ 134 µM).

System in a further data set: not listed separately
Put plainly: Hemolytic activity in RBC (uinknown origin). The note with it: erythrocyte. Type of data set: cell-based.
Turning to `O=C(Cc1cccc(Cl)c1)Nc1nc(-c2ccccc2)cs1`, the LC30 was above 10000 µg/mL.
In the case of `O=C(Cc1cccc(Br)c1)Nc1nc(-c2ccc(Br)cc2)cs1`, the LC30 was above 10000 µg/mL.
In the case of `COc1cccc(CC(=O)Nc2nc(-c3ccc(Br)cc3)cs2)c1`, the LC30 is above 10000 µg/mL.

A further data set deals with Bacillus spizizenii. Put plainly: Antibacterial activity against Bacillus subtilis ATCC 6633 after 24 hrs by MTT assay. Type of data set: functional. The note with it: ATCC 6633, 24 h.
For `CC1(C)S[C@@H]2[C@H](NC(=O)Cc3ccccc3)C(=O)N2[C@H]1C(=O)O` [PENICILLIN G], the MIC stood at 1.56 µg/mL (≈ 4.67 µM).
Still for that read-out and setting: the same measure for `COc1cccc(CC(=O)Nc2nc(-c3ccccc3)cs2)c1`: 100 µg/mL (≈ 308 µM); for `NC[C@H]1O[C@H](O[C@H]2[C@H](O)[C@@H](O[C@H]3O[C@H](CO)[C@@H](O)[C@H](N)[C@H]3O)[C@H](N)C[C@@H]2N)[C@H](N)[C@@H](O)[C@@H]1O` [BEKANAMYCIN]: 0.39 µg/mL (≈ 0.807 µM); for `O=C(Cc1cccc(Cl)c1)Nc1nc(-c2ccccc2)cs1`: 12.5 µg/mL (≈ 38 µM).
On the same count and under the same terms, the same measure for `O=C(Nc1nc(-c2ccc(Br)cc2)cs1)c1ccccc1`: above 100 µg/mL.
`O=C(Nc1nc(-c2ccccc2)cs1)c1ccccc1` showed an MIC above 100 µg/mL.
`CCOc1ccc(CC(=O)Nc2nc(-c3ccccc3)cs2)cc1OCC` gave an MIC above 100 µg/mL.
Same read-out and setting: the same measure for `O=C(Nc1nc(-c2ccccc2)cs1)c1cccc2ccccc12`: above 100 µg/mL; for `O=C(Cc1cccc(Br)c1)Nc1nc(-c2ccc(Br)cc2)cs1`: 6.25 µg/mL (≈ 13.8 µM); for `COc1cccc(CC(=O)Nc2nc(-c3ccc(Br)cc3)cs2)c1`: 25 µg/mL (≈ 62 µM).
On the same count and under the same terms, the same measure for `O=C(Nc1nc(-c2ccccc2)cs1)c1ccc2ccccc2c1`: 50 µg/mL (≈ 151 µM).
The same measure, in the same setting: the same measure for `O=C(Cc1ccc(Br)cc1)Nc1nc(-c2ccccc2)cs1`: 25 µg/mL (≈ 67 µM).
Regarding `O=C(Cc1ccccc1)Nc1nc(-c2ccc(Br)cc2)cs1`, the MIC amounted to 25 µg/mL (≈ 67 µM).

The next data set has as its system Escherichia coli. Put plainly: Antibacterial activity against Escherichia coli ATCC 35218 after 24 hrs by MTT assay. Particulars: ATCC 35218, 24 h. The class given is functional.
Take `CC1(C)S[C@@H]2[C@H](NC(=O)Cc3ccccc3)C(=O)N2[C@H]1C(=O)O` [PENICILLIN G]: inhibition of growth (MIC) required 3.13 µg/mL (≈ 9.36 µM).
Still for that read-out and setting: the same measure for `COc1cccc(CC(=O)Nc2nc(-c3ccccc3)cs2)c1`: 50 µg/mL (≈ 154 µM); for `NC[C@H]1O[C@H](O[C@H]2[C@H](O)[C@@H](O[C@H]3O[C@H](CO)[C@@H](O)[C@H](N)[C@H]3O)[C@H](N)C[C@@H]2N)[C@H](N)[C@@H](O)[C@@H]1O` [BEKANAMYCIN]: 1.56 µg/mL (≈ 3.23 µM); for `O=C(Cc1cccc(Cl)c1)Nc1nc(-c2ccccc2)cs1`: 6.25 µg/mL (≈ 19 µM).
Still for that read-out and setting: the same measure for `O=C(Nc1nc(-c2ccc(Br)cc2)cs1)c1ccccc1`: above 100 µg/mL; for `O=C(Nc1nc(-c2ccccc2)cs1)c1ccccc1`: above 100 µg/mL; for `CCOc1ccc(CC(=O)Nc2nc(-c3ccccc3)cs2)cc1OCC`: 50 µg/mL (≈ 131 µM).
The same measure, in the same setting: the same measure for `O=C(Nc1nc(-c2ccccc2)cs1)c1cccc2ccccc12`: above 100 µg/mL; for `O=C(Cc1cccc(Br)c1)Nc1nc(-c2ccc(Br)cc2)cs1`: 6.25 µg/mL (≈ 13.8 µM); for `COc1cccc(CC(=O)Nc2nc(-c3ccc(Br)cc3)cs2)c1`: 25 µg/mL (≈ 62 µM).
Take `O=C(Nc1nc(-c2ccccc2)cs1)c1ccc2ccccc2c1`: the MIC is above 100 µg/mL.
Same read-out and setting: the same measure for `O=C(Cc1ccc(Br)cc1)Nc1nc(-c2ccccc2)cs1`: 50 µg/mL (≈ 134 µM); for `O=C(Cc1ccccc1)Nc1nc(-c2ccc(Br)cc2)cs1`: 50 µg/mL (≈ 134 µM).

System in the next data set: not listed separately
Put plainly: Displacement of [3H]acetyl-CoA from Escherichia coli full-length beta-ketoacyl-ACP synthase3 expressed in Escherichia coli BL21 (DE3) by liquid scintillation counting analysis.
Conditions: not given
Regarding `O=C(Cc1cccc(Cl)c1)Nc1nc(-c2ccccc2)cs1`, the IC50 worked out at 12.3 µM.
On the same count and under the same terms, the same measure for `O=C(Cc1cccc(Br)c1)Nc1nc(-c2ccc(Br)cc2)cs1`: 9.8 µM; for `COc1cccc(CC(=O)Nc2nc(-c3ccc(Br)cc3)cs2)c1`: 65.6 µM.

The term MIC denotes the lowest concentration found to suppress growth. A high value points to a need for much substance. A word on the IC50: it is the concentration that inhibits the measured activity by half.
